Measurements published in article PMC5658359, “A potent small-molecule inhibitor of the DCN1-UBC12 interaction that selectively blocks cullin 3 neddylation” (Nature Communications, 2017).
In brackets after ≈: the same amount, converted by molar mass. Several values for one entry are separate records, joined by “and”; a condition that tells them apart may be missing. Equal entries are not always repeated.

Experiments:
[1] = target: DCN1 (Homo sapiens, UniProt Q96GG9); experiment: Competitive fluorescence polarization (FP) binding assay with probe 46, DCN1; design: Human DCN1 (residues 58–259) were cloned into a pDEST17 plasmid containing an N-terminal His6 tag; made in house; host or cells: Rosetta2 cells (E. coli); settings: for times weaker (less potent) than 30 in binding to DCN1: comparator 30; for Ki: competitive FP, probe 46 5 nM, DCN1 50 nM; for times less potent than 33 in binding to DCN1: comparator 33; for times less potent than 1 in binding to DCN1: comparator 1
Chain of DCN1 (Q96GG9 58-259): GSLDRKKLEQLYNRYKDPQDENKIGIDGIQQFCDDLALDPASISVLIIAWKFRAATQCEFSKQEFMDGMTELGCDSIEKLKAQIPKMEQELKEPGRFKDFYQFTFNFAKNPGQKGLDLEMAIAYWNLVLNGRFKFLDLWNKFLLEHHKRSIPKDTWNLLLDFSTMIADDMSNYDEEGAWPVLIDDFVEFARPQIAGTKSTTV
Protocol: The FP competitive binding experiments were performed to determine the binding affinities of all synthesized DCN1 inhibitors. […] Serial dilutions of DCN1 or DCN2 protein were mixed with the probe (46) to a final volume of 200 μl in the assay buffer (100 mM phosphate buffer, pH = 6.5, with 0.02% Tween-20 and 2% DMSO). The final probe concentration was 5 nM in both DCN1 and DCN2 assays. Plates were incubated at room temperature for 30 min with gentle shaking for equilibrium.
The IC50 and Ki values of compounds were determined in competitive binding experiments. Mixtures of compounds in DMSO (4 μl) and of pre-incubated protein/probe complex solution (196 μl) in the assay buffer were added into assay plates that were incubated at room temperature for 30 min with gentle shaking. Final concentrations of DCN1 protein and fluorescent probe (46) were 50 and 5 nM, respectively. […] FP values were measured as described above. IC50 values were determined by nonlinear regression fitting of the competition curves using the dose response inhibition equation (four parameters, variable slopes) included in the Prism/GraphPad software. K i values were calculated using the methods described earlier.

[2] = Equilibrium aqueous solubility, small-scale shake-flask method; settings: for solubility at 24 h: thermodynamic from solid
Protocol: The equilibrium aqueous solubility of an individual compound at different pH values was determined with a small-scale shake-flask method in Eppendorf tubes. Compounds were added as powder in excess to Britton-Robinson buffer at pH 2.0 or phosphate buffer at pH 7.4 until heterogeneous suspensions were obtained. Suspensions containing excessive compound powder were sonicated in a water bath for 30 min followed by incubation at room temperature with shaking for 24 h to achieve thermodynamic equilibrium. […] Supernatants obtained were filtered using Millipore MultiScreen filter plates equipped with 0.45 µm membranes. Compound concentrations in the saturated solutions were measured by UV spectroscopy at the maximum absorption wavelengths of each compound that were pre-determined by a spectrum scan.

Molecule	Ki [1]	other results
CC[C@H](C)[C@@H](CN)NC(=O)[C@H](Cc1nc2ccc(C(C)C)cc2s1)NC=O [compound 31]	2240 ± 369 nM	times weaker (less potent) than 30 in binding to DCN1 [1]: 34 times
CCCC(=O)N[C@@H](Cc1nc2ccc(C(C)C)cc2s1)C(=O)N[C@H](CN)[C@@H](C)CC [compound 35]	270 ± 34 nM	–
CC[C@H](C)[C@@H](CN)NC(=O)[C@H](Cc1nc2ccc(C(C)C)cc2s1)NC(=O)NC [compound 36]	149 ± 28 nM	–
CCC(=O)N[C@@H](Cc1nc2ccc(C(C)C)cc2s1)C(=O)NCCN [compound 37]	32000 ± 4200 nM	times less potent than 33 in binding to DCN1 [1]: > 1000 times
CCC(=O)N[C@@H](Cc1nc2ccc(C(C)C)cc2s1)C(=O)N[C@H](CN)Cc1ccccc1 [compound 39]	79 nM	–
CCC(=O)N[C@@H](Cc1nc2ccc(C(C)C)cc2s1)C(=O)N[C@H](CN(C)C)C1CCCCC1 [compound 41]	17 nM	–
CCC(=O)N[C@@H](Cc1nc2ccc(C(C)C)cc2s1)C(=O)N[C@H](CNC(=O)CN1CCOCC1)C1CCCCC1 [compound 43]	19 nM and 18.5 nM	–
Ac-MIKLFSLK-NH2 [compound 5]	–	times less potent than 1 in binding to DCN1 [1]: 2–3 times
Ac-MIKLFSLKQ-NH2 [compound 4]	–	times less potent than 1 in binding to DCN1 [1]: 2–3 times
Ac-MIKLFSLKQQ-NH2 [compound 3]	–	times less potent than 1 in binding to DCN1 [1]: 2–3 times

Further lines, with some results ahead:

Ki [1]	Molecule	other results
67000 ± 8300 nM	CC[C@H](C)[C@@H](CN)NC(=O)[C@@H](N)Cc1nc2ccc(C(C)C)cc2s1 [compound 32]	times weaker (less potent) than 30 in binding to DCN1 [1]: > 1000 times
19 nM	CCC(=O)N[C@@H](Cc1nc2ccc(C(C)C)cc2s1)C(=O)N[C@H](CN)[C@@H](C)CC [compound 33]	–
61 nM	CC[C@H](C)[C@@H](CN)NC(=O)[C@H](Cc1nc2ccc(C(C)C)cc2s1)NC(=O)C(C)C [compound 34]	–
7600 ± 380 nM	CCC(=O)N[C@@H](Cc1nc2ccc(C(C)C)cc2s1)C(=O)N[C@@H](C)CN [compound 38]	times less potent than 33 in binding to DCN1 [1]: > 400 times
13 nM	CCC(=O)N[C@@H](Cc1nc2ccc(C(C)C)cc2s1)C(=O)N[C@H](CN)C1CCCCC1 [compound 40]	aqueous solubility (in words) [2]: good; solubility at 24 h ([2]; Britton-Robinson buffer, pH 2.02, aqueous buffer): 4.75 mM (≈ 2110 µg/mL); solubility at 24 h ([2]; phosphate buffer, pH 7.4, aqueous buffer): 1.91 mM (≈ 847 µg/mL)
44 nM	CCC(=O)N[C@@H](Cc1nc2ccc(C(C)C)cc2s1)C(=O)N[C@H](CN1CCOCC1)C1CCCCC1 [compound 42]	–
